Patent publication US20210348204A1, “Systems, Methods, And Compositions For The Production of Water-Soluble Terpenes Derived From Cannabis Plants” (Trait Biosciences, Inc., priority 2018, published 2021)

Legend:
cannabinoid receptor = details: cited from earlier work
platelet aggregation = details: cited from earlier work
onychomycosis = details: comparable to ciclopiroxolamine and sulcanazole; cited from earlier work
[1] = via inhalation; cited from earlier work
5-HTEA = biological target: T1, 5-HTEA (Mus musculus, UniProt Q64264); details: via 5-HTEA; cited from earlier work
T1 sequence (Q64264 1-421): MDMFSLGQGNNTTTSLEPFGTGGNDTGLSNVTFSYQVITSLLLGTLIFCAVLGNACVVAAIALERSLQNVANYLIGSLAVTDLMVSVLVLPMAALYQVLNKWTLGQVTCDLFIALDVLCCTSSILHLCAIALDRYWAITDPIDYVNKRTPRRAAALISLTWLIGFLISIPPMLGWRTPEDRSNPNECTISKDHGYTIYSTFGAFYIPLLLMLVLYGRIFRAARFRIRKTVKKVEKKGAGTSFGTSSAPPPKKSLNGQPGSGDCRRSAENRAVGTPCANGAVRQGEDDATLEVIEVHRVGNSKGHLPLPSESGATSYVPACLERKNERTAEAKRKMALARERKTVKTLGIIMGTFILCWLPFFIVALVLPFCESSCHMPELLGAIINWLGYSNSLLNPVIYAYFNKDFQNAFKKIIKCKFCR

breast cancer cells = details: cited from earlier work
acne bacteria = details: cited from earlier work
Dermatophytes = details: cited from earlier work
[2] = in vivo; cited from earlier work
[3] = in vivo; cited from earlier work; remark: listed apart in the source
[4] = on inhalation in mice; cited from earlier work
adenosine Aza = adenosine Aza (Mus musculus, UniProt Q60613); details: via adenosine Aza; cited from earlier work
glutamate = details: in vivo; cited from earlier work
Leishmania = details: cited from earlier work
[5] = test system: Pichia pastoris yeast cells; test: Yeast cell growth after feeding transgenic Pichia cultures with individual terpenes; details: terpene 100 μg/mL final concentration, cultures harvested 2 days post-feeding
PGE-3 = details: via PGE-3; cited from earlier work
[6] = in humans; cited from earlier work
Acetylcholinesterase = Acetylcholinesterase (Homo sapiens, UniProt P22303); details: aiding memory; cited from earlier work
PGE-1 = details: via PGE-1, comparable phenylbutazone; cited from earlier work
[7] = in vivo; cited from earlier work; remark: listed apart in the source
malaria = details: cited from earlier work
CB2 = CB2 (Homo sapiens, UniProt P34972); details: cited from earlier work
PGE-2 = details: via PGE-2; cited from earlier work
[8] = antagonized by naloxone; cited from earlier work
[9] = in vivo; cited from earlier work; remark: listed apart in the source

Sequence of Acetylcholinesterase (P22303 32-614): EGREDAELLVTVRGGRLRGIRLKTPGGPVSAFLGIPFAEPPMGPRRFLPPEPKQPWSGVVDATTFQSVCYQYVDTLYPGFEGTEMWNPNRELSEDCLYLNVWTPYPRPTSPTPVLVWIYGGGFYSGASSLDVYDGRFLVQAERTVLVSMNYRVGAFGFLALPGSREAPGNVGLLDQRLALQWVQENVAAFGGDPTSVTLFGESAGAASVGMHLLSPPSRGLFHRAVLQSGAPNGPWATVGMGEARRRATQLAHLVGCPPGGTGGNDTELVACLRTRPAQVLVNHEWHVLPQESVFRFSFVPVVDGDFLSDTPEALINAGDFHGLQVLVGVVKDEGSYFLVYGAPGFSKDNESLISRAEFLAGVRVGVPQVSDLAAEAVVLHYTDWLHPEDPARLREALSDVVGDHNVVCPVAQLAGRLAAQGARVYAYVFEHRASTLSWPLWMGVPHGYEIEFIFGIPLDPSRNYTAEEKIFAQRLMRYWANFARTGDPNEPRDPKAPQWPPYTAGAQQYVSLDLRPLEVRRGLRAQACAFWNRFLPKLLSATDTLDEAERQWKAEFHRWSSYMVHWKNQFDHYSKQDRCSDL
Sequence of CB2 (P34972 whole entry): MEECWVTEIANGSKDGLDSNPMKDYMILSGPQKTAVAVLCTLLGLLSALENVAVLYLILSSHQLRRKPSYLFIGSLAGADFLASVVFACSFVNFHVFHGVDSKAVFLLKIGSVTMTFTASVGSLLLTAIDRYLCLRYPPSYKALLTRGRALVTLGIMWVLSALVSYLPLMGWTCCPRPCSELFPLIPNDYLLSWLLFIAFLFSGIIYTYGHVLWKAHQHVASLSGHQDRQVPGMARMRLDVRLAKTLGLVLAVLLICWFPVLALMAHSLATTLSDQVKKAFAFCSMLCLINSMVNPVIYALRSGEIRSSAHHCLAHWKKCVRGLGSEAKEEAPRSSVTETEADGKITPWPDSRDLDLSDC
Sequence of adenosine Aza (Q60613 whole entry): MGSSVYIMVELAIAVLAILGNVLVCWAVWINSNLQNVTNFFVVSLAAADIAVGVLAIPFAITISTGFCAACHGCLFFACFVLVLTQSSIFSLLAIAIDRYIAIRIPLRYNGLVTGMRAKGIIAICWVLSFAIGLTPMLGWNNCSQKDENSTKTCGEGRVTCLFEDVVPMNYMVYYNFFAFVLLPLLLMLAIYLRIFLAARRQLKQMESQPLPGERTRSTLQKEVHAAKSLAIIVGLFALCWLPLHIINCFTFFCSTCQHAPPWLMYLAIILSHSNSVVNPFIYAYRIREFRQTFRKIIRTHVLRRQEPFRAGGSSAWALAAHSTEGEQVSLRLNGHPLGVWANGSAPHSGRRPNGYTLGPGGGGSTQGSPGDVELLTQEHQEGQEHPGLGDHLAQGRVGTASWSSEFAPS

Question: For `C=C(C)[C@@H]1CCC(C)=C[C@H]1c1c(O)cc(CCCCC)cc1O` [CBD, cannabidiol], which “Affinity for the cannabinoid receptor (in words)” value (cannabinoid receptor) is on record?
Answer: do not have significant affinity

Question: With `C=C1CC[C@H]2O[C@]2(C)CC[C@@H]2[C@@H]1CC2(C)C` [Caryophyllene Oxide] as the molecule, how does the “Effect on platelet aggregation” value (platelet aggregation) read?
Answer: Decreases platelet aggregation

Question: What about the “Antifungal activity in onychomycosis” value (onychomycosis) of the same molecule?
Answer: Antifungal in onychomycosis comparable to ciclopiroxolamine and sulcanazole

Question: For `C=C(C)[C@H]1CC=C(C)CC1` [Limonene], which AD/immunostimulant activity [1] is on record?
Answer: Potent AD/immunostimulant via inhalation

Question: What about the Anxiolytic activity (5-HTEA) of the same molecule?
Answer: Anxielytic

Question: And the “Apoptosis of breast cancer cells” value (breast cancer cells)?
Answer: Apoptosis of breast cancer cells (Vigushin

Question: And the “Activity against acne bacteria” value (acne bacteria)?
Answer: Active against acne bacteria (Kim et al., 2008)

Question: And the Activity against dermatophytes (Dermatophytes)?
Answer: Dermatophytes (Sanguinetti et al., 2007;

Question: What about the “Activity in gastro-aesophageal reflux” value [2] of the same molecule?
Answer: Gastro-aesophageal reflux (Harris, 2010)

Question: Which Anti-anxiety activity [3] does the source give for `C=CC(C)(O)CCC=C(C)C` (stereo not drawn) [Linalool] here?
Answer: Anti-anxiety

Question: And the Sedative activity [4]?
Answer: Sedative on inhalation in mice

Question: What about the Analgesic activity (adenosine Aza) of the same molecule?
Answer: Analgesic via adenosine Aza (Peana et al.,

Question: And the Anticonvulsant/anti-glutamate activity (glutamate)?
Answer: Anticonvulsant/anti-glutamate (Elisabetsky

Question: What about the Anti-leishmanial activity (Leishmania) of the same molecule?
Answer: Potent anti-leshmarial (do Socorro et al.,

Question: With `CC(C)=CCC[C@](C)(O)[C@@H]1CC=C(C)CC1` [alpha-bisabolol] as the molecule, how does the “Effect on yeast cell growth rates” value [5] read?
Answer: no observed negative effect

Question: With `CC(C)=CCCC(C)CCO` (stereo not drawn) [citronellol] as the molecule, how does the “Effect on yeast cell growth rates” value [5] read?
Answer: no observed negative effect

Question: Which “Effect on yeast cell growth rates” value [5] does the source give for `CC(C)=CCC/C(C)=C\CO` [nerol] here?
Answer: no observed negative effect

Question: Which Anti-inflammatory activity (PGE-3) does the source give for `CC1=CCC2CC1C2(C)C` (stereo not drawn) [α-Pinene] here?
Answer: Anti-inflammatory via PGE-3

Question: What about the Bronchodilatory activity [6] of the same molecule?
Answer: Bronchodilatory in humans

Question: And the Acetylcholinesterase inhibition (Acetylcholinesterase)?
Answer: Acetylcholinesterase inhibitor, aiding memory

Question: For `C=C1CC/C=C(\C)CC[C@@H]2[C@@H]1CC2(C)C` [β-Caryophyllene], which “A1 (anti-inflammatory) activity” value (PGE-1) is on record?
Answer: A1 via PGE-1 comparable phenylbutazone

Question: What about the Gastric cytoprotective activity [7] of the same molecule?
Answer: Gastric cytoprotective

Question: What about the Anti-malarial activity (malaria) of the same molecule?
Answer: Anti-malarial

Question: And the “Selective CB2 agonist (concentration given)” value (CB2)?
Answer: 100 nM

Question: For `C=CC(=C)CCC=C(C)C` [β-Myrcene], which Blocking of inflammation (PGE-2) is on record?
Answer: Blocks inflammation via PGE-2

Question: What about the Analgesic activity [8] of the same molecule?
Answer: Analgesic, antagonized by naloxone

Question: And the “Sedating, muscle relaxant, hypnotic activity” value [9]?
Answer: Sedating, muscle relaxant, hypnotic (da Vale
